According to patent US11230540B2, “Substituted triazole derivatives and uses thereof” (Bayer Pharma Aktiengesellschaft, priority 2017, dated 2022):

Columns and labels:
human V1a receptor = molecular target: T1, human V1a receptor (Homo sapiens, UniProt P37288); assay: Cellular in vitro assay for vasopressin receptor activity, V1a receptor cell line (aequorin luminescence); format: cell-based; details: for IC50: CHO cell line transfected with human V1a receptor, [Arg8]-vasopressin at EC50 concentration, read-out: IC50 hV1a; for ratio IC50 hV2/hV1a: selectivity ratio of the IC50 values hV2/hV1a
T1 construct: expressed in transfected cells; host or cells: CHO K1 (Chinese hamster ovary), also stably transfected with a modified aequorin
Method: (§1) B-1. Cellular In Vitro Assay for Determining Vasopressin Receptor Activity
(§2) The identification of agonists and antagonists of the V1a and V2 vasopressin receptors from humans, rats and dogs as well as the quantification of the activity of the compounds of the invention is carried out using recombinant cell lines. These cell lines originally derive from a hamster's ovary epithelial cell (Chinese Hamster Ovary, CHO K1, ATCC: American Type Culture Collection, Manassas, Va. 20108, USA). The test cell lines constitutively express the human, rat or dog V1a or V2 receptors. In case of the […] V1a receptors, cells are also stably transfected with a modified form of the calcium-sensitive photoproteins aequorin (human and rat V1a) or obelin (dog V1a), which, after reconstitution with the cofactor coelenterazine, emit light when there are increases in free calcium concentrations [Rizzuto R, Simpson A W, Brini M, Pozzan T, Nature 358, 325-327 (1992); Illarionov B A, Bondar V S, Illarionova V A, Vysotski E S, Gene 153 (2), 273-274 (1995)]. The resulting vasopressin receptor cells react to stimulation of the recombinantly expressed V1a receptors by intracellular release of calcium ions, which can be quantified by the resulting photoprotein luminescence. The Gs-coupled V2 receptors are stably transfected into cell lines expressing the gene for firefly luciferase under control of a CRE-responsible promoter. Activation of V2 receptors induces the activation of the CRE-responsive promoter via cAMP increase, thereby inducing the expression of firefly luciferase. The light emitted by photoproteins of V1a cell lines as well as the light emitted by firefly luciferase of V2 cell lines corresponds to the activation or inhibition of the respective vasopressin receptor. The bioluminescence of the cell lines is detected using a suitable luminometer [Milligan G, Marshall F, Rees S, Trends in Pharmacological Sciences 17, 235-237 (1996)].
Vasopressin V1a Receptor Cell Lines:
On the day before the assay, the cells are plated out in culture medium (DMEM/F12, 2% FCS, 2 mM glutamine, 10 mM HEPES, 5 μg/ml coelenterazine) in 384-well microtiter plates and kept in a cell incubator (96% humidity, 5% v/v CO2, 37° C.). On the day of the assay, test compounds in various concentrations are placed for 10 minutes in the wells of the microtiter plate before the agonist [Arg^8]-vasopressin at EC50 concentration is added. The resulting light signal is measured immediately in a luminometer.
(§3) Table 1A below lists individual IC50 values for the compounds of the invention (including racemic mixtures as well as separated enantiomers) that were obtained from cell lines transfected with the human V1a or V2 receptor: […]

human V2 receptor = molecular target: T2, human V2 receptor (Homo sapiens, UniProt P30518); assay: Cellular in vitro assay for vasopressin receptor activity, V2 receptor cell line (CRE-luciferase); format: cell-based; details: CHO cell line transfected with human V2 receptor; [Arg8]-vasopressin at EC50 concentration; read-out: IC50 hV2
T2 construct: expressed in transfected cells; host or cells: CHO K1 (Chinese hamster ovary) expressing firefly luciferase under a CRE-responsive promoter
Method: as §1, §2
Vasopressin V2 Receptor Cell Lines:
On the day before the assay, the cells are plated out in culture medium (DMEM/F12, 2% FCS, 2 mM glutamine, 10 mM HEPES) in 384-well microtiter plates and kept in a cell incubator (96% humidity, 5% v/v CO2, 37° C.). On the day of the assay, test compounds in various concentrations and the agonist [Arg^8]-vasopressin at EC50 concentration are added together to the wells, and plates are incubated for 3 hours in a cell incubator. Upon addition of the cell lysis reagent Triton™ and the substrate luciferin, luminescence of firefly luciferase is measured in a luminometer.
as §3

T2 sequence (P30518 whole entry): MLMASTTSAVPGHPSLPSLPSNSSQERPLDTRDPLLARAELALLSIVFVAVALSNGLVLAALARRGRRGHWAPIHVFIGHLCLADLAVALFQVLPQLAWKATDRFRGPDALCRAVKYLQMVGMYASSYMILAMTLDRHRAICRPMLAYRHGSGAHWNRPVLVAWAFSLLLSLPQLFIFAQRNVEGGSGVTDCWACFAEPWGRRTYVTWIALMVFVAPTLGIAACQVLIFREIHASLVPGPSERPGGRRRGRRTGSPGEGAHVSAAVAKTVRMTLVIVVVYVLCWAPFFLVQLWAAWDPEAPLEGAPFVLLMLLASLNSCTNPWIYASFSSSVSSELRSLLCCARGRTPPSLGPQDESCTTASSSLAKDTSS
T1 sequence (P37288 whole entry): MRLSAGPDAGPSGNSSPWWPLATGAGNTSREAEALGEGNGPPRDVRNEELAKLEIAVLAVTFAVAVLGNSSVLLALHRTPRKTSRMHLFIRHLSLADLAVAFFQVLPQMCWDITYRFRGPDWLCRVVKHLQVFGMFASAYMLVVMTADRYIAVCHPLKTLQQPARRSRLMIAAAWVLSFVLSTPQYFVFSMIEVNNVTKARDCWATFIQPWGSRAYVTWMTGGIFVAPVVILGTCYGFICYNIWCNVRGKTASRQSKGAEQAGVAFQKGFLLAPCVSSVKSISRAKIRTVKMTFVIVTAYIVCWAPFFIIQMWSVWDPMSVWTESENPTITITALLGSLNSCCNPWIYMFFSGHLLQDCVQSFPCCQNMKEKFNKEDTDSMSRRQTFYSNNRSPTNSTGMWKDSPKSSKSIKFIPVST

IC50 (human V1a receptor) [nM] | ratio IC50 hV2/hV1a (human V1a receptor) | IC50 (human V2 receptor) [nM] | Structure (SMILES)
288 | 5.1 | 1470 | CC(C)(N)CNC(=O)c1nc(Cn2nc(-c3ccc(Cl)cc3)n(C[C@H](O)C(F)(F)F)c2=O)nn1-c1ncccc1C(F)(F)F [Example 46, N-(2-Amino-2-methylpropyl)-3-({3-(4-chlorophenyl)-5-oxo-4-[(2S)-3,3,3-trifluoro-2-hydroxypropyl]-4,5-dihydro-1H-1,2,4-triazol-1-yl}methyl)-1-[3-(trifluoromethyl)pyridin-2-yl]-1H1,2,4-triazole-5-carboxamide]
0.45 | 51.7 | 23 | CC(C)(O)CNC(=O)c1nc(Cn2nc(-c3ccc(Cl)cc3)n(C[C@H](O)C(F)(F)F)c2=O)nn1-c1cnccc1Cl [Example 2, 3-({3-(4-Chlorophenyl)-5-oxo-4-[(2S)-3,3,3-trifluoro-2-hydroxypropyl]-4,5-dihydro-1H-1,2,4-triazol-1-yl}methyl)-1-(4-chloropyridin-3-yl)-N-(2-hydroxy-2-methylpropyl)-1H-1,2,4-triazole-5-carboxamide]
0.68 | 144.9 | 98.5 | CC1(CNC(=O)c2nc(Cn3nc(-c4ccc(Cl)cc4)n(C[C@H](O)C(F)(F)F)c3=O)nn2-c2cnccc2Cl)COC1 [Example 8, 3-({3-(4-Chlorophenyl)-5-oxo-4-[(2S)-3,3,3-trifluoro-2-hydroxypropyl]-4,5-dihydro-1H-1,2,4-triazol-1-yl}methyl)-1-(4-chloropyridin-3-yl)-N-[(3-methyloxetan-3-yl)methyl]-1H-1,2,4-triazole-5-carboxamide]
1.21 | 7.2 | 8.63 | CON(C)C(=O)c1nc(Cn2nc(-c3ccc(Cl)cc3)n(C[C@H](O)C(F)(F)F)c2=O)nn1-c1ccccc1Cl [Example 44, 1-(2-Chlorophenyl)-3-({3-(4-chlorophenyl)-5-oxo-4-[(2S)-3,3,3-trifluoro-2-hydroxypropyl]-4,5-dihydro-1H-1,2,4-triazol-1-yl}methyl)-N-methoxy-N-methyl-1H-1,2,4-triazole-5-carboxamide]
2.45 | 146.9 | 360 | CC1(O)CCN(C(=O)c2nc(Cn3nc(-c4ccc(Cl)cc4)n(C[C@H](O)C(F)(F)F)c3=O)nn2-c2cnccc2Cl)C1 (stereo partly drawn) [Example 6]
108 | 2.9 | 315 | O=CN1CCC(NC(=O)c2nc(Cn3nc(-c4ccc(Cl)cc4)n(C[C@H](O)C(F)(F)F)c3=O)nn2-c2cccnc2Cl)C1 (mixture of isomers) [Example 14, 3-({3-(4-Chlorophenyl)-5-oxo-4-[(2S)-3,3,3-trifluoro-2-hydroxypropyl]-4,5-dihydro-1H-1,2,4-triazol-1-yl}methyl)-1-(2-chloropyridin-3-yl)-N-[1-formylpyrrolidin-3-yl]-1H-1,2,4-triazole-5-carboxamide]
0.78 | 107.1 | 83.5 | O=C(NCCC(F)(F)F)c1nc(Cn2nc(-c3ccc(Cl)cc3)n(C[C@H](O)C(F)(F)F)c2=O)nn1-c1ncccc1C(F)(F)F [Example 54, 3-({3-(4-Chlorophenyl)-5-oxo-4-[(2S)-3,3,3-trifluoro-2-hydroxypropyl]-4,5-dihydro-1H-1,2,4-triazol-1-yl}methyl)-1-[3-(trifluoromethyl)pyridin-2-yl]-N-(3,3,3-trifluoropropyl)-1H-1,2,4-triazole-5-carboxamide]
185 | 1.6 | 300 | CC1(O)CCN(C(=O)c2nc(Cn3nc(-c4ccc(Cl)cc4)n(C[C@H](O)C(F)(F)F)c3=O)nn2CCC(F)(F)F)C1 (single isomer, unassigned) [Example 24]
1.35 | 322.2 | 435 | O=C(c1nc(Cn2nc(-c3ccc(Cl)cc3)n(C[C@H](O)C(F)(F)F)c2=O)nn1-c1ncccc1C(F)(F)F)N1CC(O)(C(F)(F)F)C1 [Example 58, 5-(4-Chlorophenyl)-2-({5-[3-hydroxy-3-(trifluoromethyl)azetidine-1-carbonyl]-1-[3-(trifluoromethyl)pyridin-2-yl]-1H-1,2,4-triazol-3-yl}methyl)-4-[(2S)-3,3,3-trifluoro-2-hydroxypropyl]-2,4-dihydro-3H-1,2,4-triazol-3-one]
290 | 1.5 | 435 | CC1(O)CCN(C(=O)c2nc(Cn3nc(-c4ccc(Cl)cc4)n(C[C@H](O)C(F)(F)F)c3=O)nn2CCC(F)(F)F)C1 (mixture of isomers) [Example 22, 5-(4-Chlorophenyl)-2-{[5-{[3-hydroxy-3-methylpyrrolidin-1-yl]carbonyl}-1-(3,3,3-trifluoropropyl)-1H-1,2,4-triazol-3-yl]methyl}-4-[(2S)-3,3,3-trifluoro-2-hydroxypropyl]-2,4-dihydro-3H-1,2,4-triazol-3-one]
18.3 | 0.7 | 12.8 | O=C(c1nc(Cn2nc(-c3ccc(Cl)cc3)n(C[C@H](O)C(F)(F)F)c2=O)nn1-c1cccc(Cl)c1)N1CCOCC1 [Example 36, 5-(4-Chlorophenyl)-2-{[1-(3-chlorophenyl)-5-(morpholin-4-ylcarbonyl)-1H-1,2,4-triazol-3-yl]methyl}-4-[(2S)-3,3,3-trifluoro-2-hydroxypropyl]-2,4-dihydro-3H-1,2,4-triazol-3-one]
35 | 4.9 | 170 | O=C(c1nc(Cn2nc(-c3ccc(Cl)cc3)n(C[C@H](O)C(F)(F)F)c2=O)nn1CCC(F)(F)F)N1CCNC(C(F)(F)F)C1 (mixture of isomers) [Example 25, 5-(4-Chlorophenyl)-4-[(2S)-3,3,3-trifluoro-2-hydroxypropyl]-2-{[5-{[3-(trifluoromethyl)piperazin-1-yl]carbonyl}-1-(3,3,3-trifluoropropyl)-1H-1,2,4-triazol-3-yl]methyl}-2,4-dihydro-3H-1,2,4-triazol-3-one]
5.7 | 6.0 | 34 | O=C1CN(C(=O)c2nc(Cn3nc(-c4ccc(Cl)cc4)n(C[C@H](O)C(F)(F)F)c3=O)nn2-c2ccccc2Cl)CCN1 [Example 31, 4-{[1-(2-Chlorophenyl)-3-({3-(4-chlorophenyl)-5-oxo-4-[(2S)-3,3,3-trifluoro-2-hydroxypropyl]-4,5-dihydro-1H-1,2,4-triazol-1-yl}methyl)-1H-1,2,4-triazol-5-yl]carbonyl}piperazin-2-one]
2.95 | 8.8 | 26 | CC(C)(C)NC(=O)c1nc(Cn2nc(-c3ccc(Cl)cc3)n(C[C@H](O)C(F)(F)F)c2=O)nn1-c1ccccc1Cl [Example 28, N-tert-Butyl-1-(2-chlorophenyl)-3-({3-(4-chlorophenyl)-5-oxo-4-[(2S)-3,3,3-trifluoro-2-hydroxypropyl]-4,5-dihydro-1H-1,2,4-triazol-1-yl}methyl)-1H-1,2,4-triazole-5-carboxamide]
2.07 | 8.1 | 16.7 | CNC(=O)c1nc(Cn2nc(-c3ccc(Cl)cc3)n(C[C@H](O)C(F)(F)F)c2=O)nn1-c1ccccc1Cl [Example 43, 1-(2-Chlorophenyl)-3-({3-(4-chlorophenyl)-5-oxo-4-[(2S)-3,3,3-trifluoro-2-hydroxypropyl]-4,5-dihydro-1H-1,2,4-triazol-1-yl}methyl)-N-methyl-1H-1,2,4-triazole-5-carboxamide]
